Laboratory results taken from PubChem BioAssay AID1963863 (Molecular Pharmacology Branch, DTP, NCI, 2024).

Tested on: 931267-113-T-J1-PDC KRAS spheroid with HUVEC/MSC, viability
Assay: Anticancer human tumor 931267-113-T-J1-PDC patient-derived colon adenocarcinoma cell line growth inhibition [KRAS2]
Conditions: for IC50: curve of first compound; for viability, T/C: stronger effect = lower value
Procedure, shortened: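 Combination screen of spheroid viability in tumor-cell co-cultures with endothelial (HUVEC) and mesenchymal stem cell stroma. Each agent was tested in half-log dilutions, topping at clinical Cmax or at 10 microM without a known Cmax.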

[1] = second compound 0.0316 µM, first compound 0.0316 µM
[2] = second compound 0.0316 µM, first compound 0.1 µM
[3] = second compound 0.0316 µM, first compound 0.316 µM
[4] = second compound 0.0316 µM, first compound 1 µM
[5] = second compound 0.0316 µM, first compound 3.16 µM
[6] = second compound 0.1 µM, first compound 0.0316 µM
[7] = second compound 0.1 µM, first compound 0.1 µM
[8] = second compound 0.1 µM, first compound 0.316 µM
[9] = second compound 0.1 µM, first compound 1 µM
[10] = second compound 0.1 µM, first compound 3.16 µM
[11] = second compound 0.316 µM, first compound 0.0316 µM
[12] = second compound 0.316 µM, first compound 0.1 µM
[13] = second compound 0.316 µM, first compound 0.316 µM
[14] = second compound 0.316 µM, first compound 1 µM
[15] = second compound 0.316 µM, first compound 3.16 µM
[16] = second compound 1 µM, first compound 0.0316 µM
[17] = second compound 1 µM, first compound 0.1 µM
[18] = second compound 1 µM, first compound 0.316 µM
[19] = second compound 1 µM, first compound 1 µM
[20] = second compound 1 µM, first compound 3.16 µM
[21] = second compound 3.16 µM, first compound 0.0316 µM
[22] = second compound 3.16 µM, first compound 0.1 µM
[23] = second compound 3.16 µM, first compound 0.316 µM
[24] = second compound 3.16 µM, first compound 1 µM
[25] = second compound 3.16 µM, first compound 3.16 µM
[26] = second compound 0.0316 µM, first compound 10 µM
[27] = second compound 0.1 µM, first compound 10 µM
[28] = second compound 0.316 µM, first compound 10 µM
[29] = second compound 1 µM, first compound 10 µM
[30] = second compound 3.16 µM, first compound 10 µM
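Further: compound exposure lasted 7 days before the readout.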
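Wherever viability, T/C is given: 100% = DMSO vehicle control viability.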

SMILES	IC50 (second compound 0.0316 µM)	IC50 (second compound 0.1 µM)	IC50 (second compound 0.316 µM)	IC50 (second compound 1 µM)	IC50 (second compound 3.16 µM)	viability, T/C [1]	viability, T/C [2]	viability, T/C [3]	viability, T/C [4]	viability, T/C [5]	viability, T/C [6]	viability, T/C [7]	viability, T/C [8]	viability, T/C [9]	viability, T/C [10]	viability, T/C [11]	viability, T/C [12]	viability, T/C [13]	viability, T/C [14]	viability, T/C [15]	further results
CC1COCCN1c1cc(-c2ccnn2C)c2ccnc(-c3ccn[nH]3)c2n1 (stereo not given) + C=CC(=O)N1CCN(c2nc(OCC3CCCN3C)nc3c2CCN(c2cccc4cccc(C)c24)C3)CC1CC#N	44.1 nM	45.4 nM	39.8 nM	25.6 nM	< 10 nM	59%	27.8%	19.2%	18.1%	18%	62.8%	22.2%	18.6%	21.6%	21.5%	56.4%	24.7%	16.8%	18.9%	24.5%	viability, T/C (second compound 0.0316 µM, first compound 0.01 µM): 90.9%; viability, T/C (second compound 0.1 µM, first compound 0.01 µM): 122%; viability, T/C (second compound 0.316 µM, first compound 0.01 µM): 75.6%; viability, T/C (second compound 1 µM, first compound 0.01 µM): 88.9%; viability, T/C [16]: 41.3%; viability, T/C [17]: 12%; viability, T/C [18]: 12.8%; viability, T/C [19]: 21.3%; viability, T/C [20]: 24.1%; viability, T/C (second compound 3.16 µM, first compound 0.01 µM): 0.25%; viability, T/C [21]: 0.19%; viability, T/C [22]: 0.38%; viability, T/C [23]: 0.14%; viability, T/C [24]: 0.14%; viability, T/C [25]: 0.94%
CC1OCC2(CCN(c3cnc(Sc4ccnc(N)c4Cl)c(N)n3)CC2)C1N (stereo not given) + C=CC(=O)N1CCN(c2nc(OCC3CCCN3C)nc3c2CCN(c2cccc4cccc(C)c24)C3)CC1CC#N	> 10000 nM	> 10000 nM	> 10000 nM	> 10000 nM	< 31.6 nM	111%	81.9%	77.3%	58.2%	80%	98.3%	75.6%	79.1%	75.2%	71.1%	93%	87.8%	69.1%	70.2%	75.6%	viability, T/C [26]: 83%; viability, T/C [27]: 99.3%; viability, T/C [28]: 69.6%; viability, T/C [16]: 78%; viability, T/C [17]: 65.9%; viability, T/C [18]: 55.2%; viability, T/C [19]: 68.7%; viability, T/C [20]: 68.8%; viability, T/C [29]: 61.2%; viability, T/C [21]: 0.31%; viability, T/C [22]: 0.29%; viability, T/C [23]: 0.36%; viability, T/C [24]: 0.26%; viability, T/C [25]: 0.28%; viability, T/C [30]: 0.26%
Cn1nccc1Nc1nccc(-c2cc3c(s2)C(C)(C)N(CCN2CCOCC2)C3=O)n1 + C=CC(=O)N1CCN(c2nc(OCC3CCCN3C)nc3c2CCN(c2cccc4cccc(C)c24)C3)CC1CC#N	424 nM	526 nM	400 nM	365 nM	< 31.6 nM	118%	97.7%	59.8%	23%	7.09%	88.9%	92%	57.8%	37.8%	4.83%	107%	91%	55.7%	25.5%	6.39%	viability, T/C [26]: 4.66%; viability, T/C [27]: 4.43%; viability, T/C [28]: 4.33%; viability, T/C [16]: 88.5%; viability, T/C [17]: 65.9%; viability, T/C [18]: 59.7%; viability, T/C [19]: 23.2%; viability, T/C [20]: 3.82%; viability, T/C [29]: 2.07%; viability, T/C [21]: 0.35%; viability, T/C [22]: 0.25%; viability, T/C [23]: 0.29%; viability, T/C [24]: 0.14%; viability, T/C [25]: 0.14%; viability, T/C [30]: 0.22%
